Test results published in US20200010479A1, “INHIBITORS OF MICROBIAL BETA-GLUCURONIDASE ENZYMES AND USES THEREOF” (THE UNIVERSITY OF NORTH CAROLINA AT CHAPEL HILL, priority 2017, published 2020).
pIC50: −log10 of the molar value. “Also recorded” adds a separate entry of the source. Where two headings read alike, the source gives them in different places.

Key:
E. coli GUS [1] = target: T1, E. coli GUS (Escherichia coli, UniProt P05804); test: In vitro EcGUS inhibition, cleavage of PNPG by purified E. coli GUS; type: biochemical; details: PNPG substrate, 37° C., 2 hours
Description: To assess GUS inhibition, cleavage of p-nitrophenyl-β-D-glucuronide (PNPG) by purified E. coli GUS in the presence of inhibitor was measured. The reaction was performed in 96-well clear-bottom plates at a volume of 50 μL. Each reaction contained 5 μL of 100 nM E. coli GUS, 5 μL of inhibitor at various concentrations, 10 μL of 250 mM HEPES and 250 mM NaCl assay buffer, and 30 μL of 1.5 mM PNPG. The reaction was initiated by addition of PNPG and incubated at 37° C. for 2 hours. End point absorbance values at 410 nm were measured using a PHERAstar Plus microplate reader. The resulting data were fit with a four-parameter logistic log function in SigmaPlot 13.0 to determine IC50 values. IC50 was defined as the concentration of inhibitor that yields a 50% reduction in product formation at equilibrium.

E. coli GUS [2] = target: T1, E. coli GUS; type: biochemical; details: purified L1 enzyme, in vitro
E. eligens GUS = test: SN-38-G processing by purified GUS enzymes, with inhibitors; type: biochemical, Eubacterium eligens; details: purified L1 enzyme, in vitro
S. agalactiae GUS = target: T2, S. agalactiae GUS (Streptococcus agalactiae serotype V, UniProt Q8E0N2); type: biochemical; details: purified L1 enzyme, in vitro
T2 construct: made in house

C. perfringens GUS = C. perfringens GUS (Clostridium perfringens, UniProt Q8XP19); type: biochemical
[3] = target: T3, Mini-Loop 1 (mL1) GUS from Bacteroides fragilis (Bacteroides fragilis, UniProt Q5LIC7); type: biochemical; details: purified mL1 enzyme, in vitro
T3 construct: made in house

[4] = test system: Loop 2 (L2) enzyme from Bacteroides uniformis; test: SN-38-G processing by purified GUS enzymes, with inhibitors; type: biochemical; details: in vitro
[5] = test system: panel of purified GUS enzymes present in the human gut microbiota; test: SN-38-G processing by panel of purified GUS enzymes, with inhibitors; type: biochemical; details: comparison of inhibitors over the panel
[6] = test system: gut microbial GUS proteins; test: SN-38-G processing by in fimo samples (enzyme mixtures from intestinal contents); type: biochemical, naïve FVB mice
Text: To examine the activity of a more relevant sample of gut microbial GUS proteins, intestinal contents from naïve FVB mice in SPF conditions were obtained. […] As used herein, the ex vivo intestinal samples examined scientifically are to be termed “in fimo” from “fimus”, used by […] and in formal Latin to mean “excrement”. […] FIGS. 14A and 14B). […] FIGS. 14A and 14B).

gut microbial enzymes = test: SN-38-G reactivation in fimo samples after treatment of FVB mice; type: in vivo; details: for effects on SN-38-G reactivation by in fimo samples: samples collected at 120 hours; for SN-38-G processing activity in the mouse cecum (in fimo samples): single agent, samples collected after 24 hours
Description: The FVB mice were treated with irinotecan, the Inh9, or both irinotecan and Inh9, and it was determined how these treatments affected SN-38-G reactivation in fimo samples collected after 24 hours. […] A similar study was conducted in which samples were collected at 120 hours; at this five-day timepoint, no difference was found between the four treatment groups (data not shown).

[7] = test system: murine intestinal epithelium; test: Time-course of gut damage after a single treatment in FVB mice; type: in vivo, female FVB mice
Description: It has been previously reported that irinotecan induces apoptosis and reduces the number of mitotic structures in the rat intestinal epithelium (Takasuna 1996). To assess whether Inh9 impacts cell proliferation in the murine intestinal epithelium, we undertook two time-course studies. Four groups of age-, weight- and litter-matched female FVB mice were treated with a single treatment of vehicle, Inh9 (1 mg/kg p.o.), irinotecan (50 mg/kg i.p.) or irinotecan and Inh9. One set of animals were euthanized after 24 hours, and a second set after 120 hours. To assess overall effects on the animals, changes in body weight, spleen mass and hematocrit were measured. In the GI tract, levels of apoptotic cells and proliferative cells were measured and epithelial samples were examined by H&E staining.
Thus, at five days, Inh9 appears to protect this measure of animal health. […] As such, the protection afforded at 24 hours by Inh9 is sufficient to improve subsequent gut epithelial outcomes in mice several days after administration.

gut microbiota [8] = test: 16S rRNA metataxonomic analysis of luminal contents, athymic Sum149 xenograft mice; type: in vivo
Description: A metataxonomic analysis was performed of the luminal contents of athymic mice bearing Sum149 triple-negative breast cancer xenograft tumors by sequencing the V3-V4 region of the bacterial 16s rRNA gene. […] Gut microbial diversity is associated with animal and human health, while reduced diversity is associated with disease in both model organisms and humans (REFs). Thus, Inh9 blunts the negative effects of irinotecan on gut microbial diversity in athymic tumor xenograft mice, and is capable of increases species richness in these animals.
At the phylum level, the lumenal contents of vehicle-treated mice contained 50% Bacteroidetes, 42% Firmicutes, and 4% Proteobacteria (FIG. 22B). […] Thus, in immune-deficient mice, Inh9 markedly protects gut microbial composition in athymic mice, increasing diversity and reducing irinotecan-induced increases in Proteobacteria.

gut microbiota [9] = test: Gut microbiota composition in C3Tag GEMM animals; type: in vivo, C3Tag GEMM mice; details: for composition of the gut microbiota: mice with intact immune system
Text: Finally, we examined the effects of irinotecan and GUS inhibitor on the composition of the gut microbiota in […] triple-negative breast cancer GEMM animals. […] While the vehicle and Inh9 treatment groups appeared similar by PCoA1 analysis, both the irinotecan and IRI+Inh9 groups were similar to each other and distinct from the non-irinotecan mice (FIG. 22C). However, unlike the xenograft mice, irinotecan induces much smaller changes in the composition of the gut microbiota in these GEMM animals. […] These changes were not as dramatic as those observed with the athymic Sum149 xenograft mice presented above. […] In these GEMM animals, though, no change in Enterobacteriaceae or other Gammaproteobacteria families was observed; thus, the taxa that drive the increases in Proteobacteria are not known in these immune-competent mice.

SUM149 cells [10] = test: SUM149 triple negative breast cancer xenograft in athymic nude mice
C3-Tag mammary tumors [11] = test: C3-Tag genetically engineered mouse model (GEMM) of triple-negative breast cancer; details: for number of tumors observed in the animals: between treatment groups
SUM149 cells [12] = details: athymic nude, mouse, in vivo, 5 days
C3-Tag mammary tumors [13] = details: mouse, in vivo
[14] = therapeutically-relevant doses; cited from earlier work
[15] = test system: gut microbial GUS enzymes; details: irinotecan alone; cited from earlier work
[16] = Inh9 co-treatment with irinotecan, 24 hours
[17] = irinotecan plus Inh9 vs irinotecan alone, 120 hours
[18] = irinotecan and Inh9 vs irinotecan alone

T1 sequence (P05804 whole entry): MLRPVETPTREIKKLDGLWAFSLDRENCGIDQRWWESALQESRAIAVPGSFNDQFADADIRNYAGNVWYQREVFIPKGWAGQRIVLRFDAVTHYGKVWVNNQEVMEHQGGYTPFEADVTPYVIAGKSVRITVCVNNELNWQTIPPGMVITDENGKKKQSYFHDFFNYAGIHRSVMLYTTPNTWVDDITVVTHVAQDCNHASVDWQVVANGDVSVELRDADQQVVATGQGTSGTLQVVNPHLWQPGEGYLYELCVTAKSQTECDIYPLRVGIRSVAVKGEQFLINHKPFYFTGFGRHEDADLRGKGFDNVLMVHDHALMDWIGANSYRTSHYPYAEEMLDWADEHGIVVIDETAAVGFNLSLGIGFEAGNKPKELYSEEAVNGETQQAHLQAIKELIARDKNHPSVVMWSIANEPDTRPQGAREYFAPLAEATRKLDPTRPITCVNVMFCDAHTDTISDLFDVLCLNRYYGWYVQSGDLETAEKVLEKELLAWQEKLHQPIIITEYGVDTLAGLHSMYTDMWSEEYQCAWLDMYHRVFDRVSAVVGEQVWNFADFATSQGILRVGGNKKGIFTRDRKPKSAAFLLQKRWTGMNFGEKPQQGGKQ
T3 sequence (Q5LIC7 whole entry): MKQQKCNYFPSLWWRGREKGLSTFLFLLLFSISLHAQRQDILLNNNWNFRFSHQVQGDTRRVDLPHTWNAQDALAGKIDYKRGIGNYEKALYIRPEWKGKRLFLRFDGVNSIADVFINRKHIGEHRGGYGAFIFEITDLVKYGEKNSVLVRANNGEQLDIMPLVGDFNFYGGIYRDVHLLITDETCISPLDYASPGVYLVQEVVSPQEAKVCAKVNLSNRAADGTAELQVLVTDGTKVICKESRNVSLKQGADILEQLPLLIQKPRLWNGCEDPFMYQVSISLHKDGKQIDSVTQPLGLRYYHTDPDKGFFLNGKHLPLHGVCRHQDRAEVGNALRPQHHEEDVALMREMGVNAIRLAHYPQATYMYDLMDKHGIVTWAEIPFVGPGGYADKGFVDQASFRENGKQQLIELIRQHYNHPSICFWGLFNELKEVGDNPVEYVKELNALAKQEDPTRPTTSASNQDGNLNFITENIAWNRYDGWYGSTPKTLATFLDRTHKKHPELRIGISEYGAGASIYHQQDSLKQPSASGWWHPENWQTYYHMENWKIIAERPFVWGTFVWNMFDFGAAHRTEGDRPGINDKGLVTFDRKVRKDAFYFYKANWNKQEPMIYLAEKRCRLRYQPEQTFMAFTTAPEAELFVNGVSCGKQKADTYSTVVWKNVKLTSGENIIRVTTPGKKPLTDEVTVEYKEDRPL
T2 sequence (Q8E0N2 whole entry): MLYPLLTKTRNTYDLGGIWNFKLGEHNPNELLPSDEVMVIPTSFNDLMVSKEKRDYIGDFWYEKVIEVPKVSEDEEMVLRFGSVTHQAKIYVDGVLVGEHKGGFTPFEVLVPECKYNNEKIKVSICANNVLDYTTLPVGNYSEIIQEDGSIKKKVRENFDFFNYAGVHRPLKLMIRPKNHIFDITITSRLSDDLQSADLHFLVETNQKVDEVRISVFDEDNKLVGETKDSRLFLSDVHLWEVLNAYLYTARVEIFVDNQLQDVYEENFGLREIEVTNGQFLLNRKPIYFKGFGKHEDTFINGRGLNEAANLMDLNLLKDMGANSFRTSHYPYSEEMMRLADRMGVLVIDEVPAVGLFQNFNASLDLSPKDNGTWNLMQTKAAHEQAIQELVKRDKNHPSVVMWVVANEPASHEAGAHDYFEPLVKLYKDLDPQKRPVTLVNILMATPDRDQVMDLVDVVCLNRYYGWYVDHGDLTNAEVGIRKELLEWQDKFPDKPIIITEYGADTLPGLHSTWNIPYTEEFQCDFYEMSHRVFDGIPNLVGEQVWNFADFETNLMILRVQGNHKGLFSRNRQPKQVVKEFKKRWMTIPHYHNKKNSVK
C. perfringens GUS, sequence (Q8XP19 whole entry, looked up): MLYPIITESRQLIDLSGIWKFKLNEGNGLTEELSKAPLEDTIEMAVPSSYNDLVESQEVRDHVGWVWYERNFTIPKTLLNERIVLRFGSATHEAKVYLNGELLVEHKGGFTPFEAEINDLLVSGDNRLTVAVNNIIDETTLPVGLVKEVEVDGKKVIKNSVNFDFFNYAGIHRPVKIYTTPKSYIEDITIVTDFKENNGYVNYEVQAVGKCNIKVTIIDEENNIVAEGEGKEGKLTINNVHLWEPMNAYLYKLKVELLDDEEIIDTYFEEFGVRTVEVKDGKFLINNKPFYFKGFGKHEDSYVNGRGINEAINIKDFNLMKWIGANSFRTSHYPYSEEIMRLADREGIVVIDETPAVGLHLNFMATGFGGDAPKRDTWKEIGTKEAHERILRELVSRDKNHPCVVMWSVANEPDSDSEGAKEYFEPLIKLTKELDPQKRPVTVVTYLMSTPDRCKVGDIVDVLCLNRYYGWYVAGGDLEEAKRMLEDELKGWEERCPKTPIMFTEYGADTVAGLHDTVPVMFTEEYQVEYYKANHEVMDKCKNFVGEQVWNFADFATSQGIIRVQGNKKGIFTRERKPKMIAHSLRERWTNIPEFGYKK

## C1CCc2c(c(N3CCOCC3)nc3sc4c(N5CCNCC5)nnnc4c23)C1 [Inh9]
E. coli GUS [1]
  pIC50: 6.42
E. coli GUS [2]
  inhibition of SN-38-G processing (apparent kcat): efficiently reduced
E. eligens GUS
  inhibition of SN-38-G processing (apparent kcat): efficiently reduced
S. agalactiae GUS
  inhibition of SN-38-G processing (apparent kcat): efficiently reduced
C. perfringens GUS
  inhibition of SN-38-G processing (apparent kcat): efficiently reduced
[3]
  inhibition of SN-38-G processing: did not inhibit
[4]
  inhibition of SN-38-G processing: did not inhibit
[5]
  inhibiting GUS-mediated reactivation of SN-38-G in vitro: superior to Inh1
[6]; Inh9 at 50 and 100 μM
  SN-38-G reactivation by cecal contents: dose-dependent; also recorded: significantly reduce
[6]; cecum, proximal and distal colon samples, comparison of inhibitors
  reducing SN-38-G processing in fimo: superior to Inh1
Gut microbial enzymes; Inh9 plus irinotecan compared to irinotecan alone, 24 hours
  level of SN-38-G reactivation by in fimo samples: significantly reduced
Gut microbial enzymes
  effects on SN-38-G reactivation by in fimo samples: no longer detected
  SN-38-G processing activity in the mouse cecum (in fimo samples): did not alter
[7]; [16]
  acute toxicity after single IRI injection: modestly reduces
  apoptotic cells per crypt: modest protection
[7]; Inh9 co-treatment with irinotecan, 120 hours
  apoptotic cells per crypt: modest protection
[7]; between treatment groups, 24 hours
  numbers of proliferative cells in the GI tract (BrdU): no change
[7]; co-treatment of irinotecan with Inh9, 120 hours
  number of proliferative cells per crypt in ileum, proximal colon and distal colon: significantly increased
[7]; [17]
  body weight or spleen mass: no changes
  hematocrit: significant increase
Gut microbiota [8]; GUS inhibitor alone
  reduction of the levels of Proteobacteria compared to vehicle: more than 10 fold
Gut microbiota [8]; IRI+Inh9
  species diversity, Chao1 richness: maintained species diversity
Gut microbiota [8]; irinotecan and Inh9
  Bacteroidetes in lumenal contents, phylum level: 42%
  Firmicutes in lumenal contents, phylum level: 43%
  Proteobacteria in lumenal contents, phylum level: 13%
Gut microbiota [8]; single agent
  Proteobacteria in lumenal contents, phylum level: 0.3%
  species diversity, Chao1 richness: uniformly maximized species richness
Gut microbiota [9]
  composition of the gut microbiota: does not change
SUM149 cells [10]; Inh9 with irinotecan
  post-sacrifice colon histological examination: marked protection
SUM149 cells [10]; [18]
  diarrhea: significantly less diarrhea
  irinotecan-induced weight loss / body weight: significant improvement; also recorded: significantly protected
  survival: slightly improved overall survival; also recorded: trended toward living longer
SUM149 cells [10]; irinotecan-plus-Inh9
  terminal tumor masses: significantly reduced
SUM149 cells [10]; irinotecan-plus-Inh9 compared to vehicle and Inh9 cohorts
  tumor volumes: significantly reduced
C3-Tag mammary tumors [11]; IRI+Inh9
  colon tissue, H&E staining: maintained a properly assembled colonic glandular structure
  day to which the study could continue: 49 days
  primary tumor as share of body weight: below 1%
  primary tumor mass upon sacrifice: less than 100 mg
  time some animals remained diarrhea-free: 42 days
C3-Tag mammary tumors [11]; IRI+Inh9, after the first 21 days
  body weight over the course of the study: rebounded and recovered their lost weight
C3-Tag mammary tumors [11]; IRI+Inh9 vs IRI
  survival longer than IRI (Kaplan-Meier): 43%
C3-Tag mammary tumors [11]; IRI+Inh9 vs IRI alone
  number of doses of irinotecan received: significantly higher number of IRI doses; also recorded: more doses of irinotecan
C3-Tag mammary tumors [11]; IRI+Inh9 vs Veh and Inh9
  survival longer than Veh and Inh9 (Kaplan-Meier): 29%
C3-Tag mammary tumors [11]; IRI+Inh9 vs irinotecan alone
  diarrhea: significantly reduced diarrhea
C3-Tag mammary tumors [11]; Inh9 alone
  diarrhea: did not develop diarrhea
C3-Tag mammary tumors [11]; Inh9 alone (as vehicle)
  time followed until tumor size necessitated euthanasia: 70 to 80 days
C3-Tag mammary tumors [11]; Inh9 co-treatment
  extension of overall survival of irinotecan-treated mice: 14 days
C3-Tag mammary tumors [11]
  number of tumors observed in the animals: did not differ
C3-Tag mammary tumors [11]; irinotecan plus GUS inhibition
  tumor volumes measured during the study: significantly smaller tumors
C3-Tag mammary tumors [11]; single agent
  body weight over the course of the study: gained weight
  colon tissue, H&E staining: healthy colonic histology
  primary tumor as share of body weight: more than 5%
  primary tumor mass upon sacrifice: 1.5 g
  tumor volumes measured during the study: reduced tumor volumes
C3-Tag mammary tumors [11]; with Inh9
  tumor number and relative mass (FIG. 9): significant reduction

## CCc1c2c(nc3ccc(OC(=O)N4CCC(N5CCCCC5)CC4)cc13)-c1cc3c(c(=O)n1C2)COC(=O)[C@]3(O)CC [irinotecan, (S)-4,11-diethyl-3,4,12,14-tetrahydro-4-hydroxy-3,14-dioxo1H-pyrano[3′,4′:6,7]-indolizino[1,2-b]quinolin-9-yl-[1,4′bipiperidine]-1′-carboxylate, reference compound]
Gut microbial enzymes
  effects on SN-38-G reactivation by in fimo samples: no longer detected
  SN-38-G processing activity in the mouse cecum (in fimo samples): significantly increased
[7]; irinotecan
  time to apoptotic crypt damage in the murine small intestine: ≤ 24 h
[7]; single IRI injection, five days
  spleen mass: unchanged
[7]; single IRI injection, over five days
  body mass: modest body mass reduction
[7]; single agent compared to vehicle or Inh9, 120 hours
  proliferative (BrdU+) cells per crypt in ileum, proximal colon and distal colon: significantly decreased
Gut microbiota [8]; irinotecan, athymic xenograft mice
  increase in the levels of Proteobacteria: ten-fold increase
Gut microbiota [8]; single agent
  Bacteroidetes in lumenal contents, phylum level: 35%
  Firmicutes in lumenal contents, phylum level: 16%
  Proteobacteria in lumenal contents, phylum level: 46%
  species diversity, Chao1 richness: significant drop
Gut microbiota [9]; irinotecan alone or in combination with GUS inhibitor vs no irinotecan
  Proteobacteria and Gammaproteobacteria, Verrucomicrobia and Verrocumicrobiae levels: significant increases
Gut microbiota [9]
  composition of the gut microbiota: sole driver of changes
SUM149 cells [12]
  mice that developed late-onset, delayed diarrhea: 50%
C3-Tag mammary tumors [13]; female, C3-Tag (strain of origin FVB/N)
  time within which all animals developed diarrhea: ≤ 14 days
C3-Tag mammary tumors [13]
  body weight over the course of the study: consistently lost weight
  colon tissue, H&E staining: almost completely destroyed glandular structure
[14]
  patients who develop diarrhea of all grades: 88%
  patients with life-threatening grade 3-4 diarrhea: 30%
[15]
  time to lethal intestinal toxicity: ≤ 10 days
SUM149 cells [10]; both irinotecan treatment groups
  time to early-onset diarrhea: ≤ 12 h
SUM149 cells [10]; irinotecan alone, following the first treatment
  time until the entire cohort required euthanasia: 10 days
SUM149 cells [10]; single agent
  post-sacrifice colon histological examination: dramatic irinotecan-induced epithelial damage
  terminal tumor masses: significantly reduced
C3-Tag mammary tumors [11]
  number of tumors observed in the animals: did not differ
C3-Tag mammary tumors [11]; irinotecan alone, after the initiation of therapy
  time until euthanasia was required for all animals: 28 days
C3-Tag mammary tumors [11]; single agent
  primary tumor as share of body weight: 3%
  primary tumor mass upon sacrifice: ~1 g
